A melting point compilation (Tetko et al.; mined from patent text by program, amines drawn as free bases though some values may be those of a salt)

Structure (SMILES) | melting point [°C]
CCCOC(=O)C(C)NC(=O)C(CC(=O)O)NC(=O)C(C)N (stereo not given) | 223 to 225
O=C1C(c2cc(OCc3ccccc3)ccc2O)c2ccccc2N1Cc1ccc(Cl)s1 (stereo not given) | 173 to 175
CN(C)Cc1cccc(-c2cc3c(=O)n(NS(C)(=O)=O)c(=O)[nH]c3cc2C(F)(F)F)c1 | 346 to 348
CCCCN(C(=O)c1ccccc1)C1CC(C)(C)N(OC(=O)c2ccccc2)C(C)(C)C1 | 155 to 159
Cc1ccnc(N2CCN(CCCCC3Sc4ccccc4NC3=S)CC2)c1 (stereo not given) | 119
CCc1cccc(C)c1NC(=O)N=C1NCCN1 | 185 to 187
CC(=O)NC[C@H]1CN(c2cc(F)c(N3CCN(CCO)CC3)c(F)c2)C(=O)O1 | 172 to 174
COC(=O)c1ccc(Br)c(C=O)c1 | 71 to 74
COC(=O)CCn1c(=O)n2n(c1=O)C(C(=O)O)C=CC2 (stereo not given) | 150 to 153
O=C1CCc2ccc(OCCCCCl)cc2N1 | 104 to 106
CCOc1nc(=O)n(C(=O)NC(Cl)=C(Cl)Cl)s1 | 123
O=C(O)c1ccc(-c2cccc([N+](=O)[O-])c2)[nH]c1=O | 303 to 304
O=C(O)Cc1ccc(SCc2ccccc2C(=O)O)cc1 | 169
CC(=O)SCCC(=O)N1N=C(c2ccc(C(F)(F)F)cc2)SC1C(=O)OCc1ccccc1 (stereo not given) | 120 to 121
CCCCCCOc1nc(O)ns1 | 61
COc1cc(C=O)cc(OC)c1OCCO | 69 to 70
Cc1nc2cc(Cl)ccc2c2ccccc12 | 129 to 131
CCOC(=O)C(=O)Nc1nc(CN2CCN(C(c3ccccc3)c3ccccc3)CC2)c(Cl)s1 | 154 to 156
Oc1ccc(CCC(CCc2ccc(O)cc2)(c2ccc(O)cc2)c2ccc(O)cc2)cc1 | 252
O=C(CCCCCCC1=CC(O)CC1=O)Oc1ccc(NC(=O)c2ccccc2)cc1 (stereo not given) | 168 to 169
CS(=O)(=O)C(C(=O)OCc1ccccc1)(C(=O)OCc1ccccc1)N1C(=O)C(NC(=O)Cc2ccccc2)C1CN=[N+]=[N-] (stereo not given) | 114 to 115
COC(=S)NC1(N=NC(C)(C)C)CCCCC1 | 79 to 82
Cc1cc(C(=O)CS(C)(=O)=O)cc(C)c1N | 179 to 180
Cc1ccc(OC2CCN(C(=O)C(=O)Nc3ccc4c(c3)OCC(=O)N4)CC2)cc1 | 226 to 228
FC(F)(F)c1ccccc1NC(=S)N1CCc2c(sc3c2C(c2ccccc2Cl)=NCc2nnc(Cc4ccccc4)n2-3)C1 | 239 to 240
O=C(O)c1cccn1Cc1ccco1 | 117 to 118
CCCc1c(OCC(C)CC(=O)NCCCCc2cccnc2)ccc(C(C)=O)c1O (stereo not given) | 58 to 60

Structure (SMILES) | melting point [°C]
CC(C)(C)P1(=S)CCC1 | 120 to 121
Cc1ccc(OCC(CO)NC(C)(C)C)c(-c2ccc(=S)[nH]n2)c1 (stereo not given) | 130
CC(C)C(NC(=O)Cn1cccc(NC(=O)CCc2ccccc2)c1=O)C(=O)C(F)(F)F (stereo not given) | 154 to 155
C(=C1CCc2cccnc21)c1ccccc1 | 74 to 75
CCCc1c(OCCCCCCC2CC(=O)c3ccc(OCC(=O)OC)c(CCC)c3O2)ccc(C(C)=O)c1O (stereo not given) | 121 to 124
CCOc1nc2c(cnn2CC)nc1C(=O)O | 128 to 130
O=C(CCCN1CCC(C(O)c2cccc3ccccc23)CC1)c1ccc(F)cc1 (stereo not given) | 172 to 174
CC(=O)C1=C(C)NC(C)=C(C(=O)CCCCCCCN2CCC(c3ccccc3)(c3ccccc3)CC2)C1c1cccc([N+](=O)[O-])c1 (stereo not given) | 141 to 145
CN(CCOc1ccc(C=C2SC(=O)NC2=O)cc1)c1nc2ccccc2s1 | 219
CCOC(=O)c1sc(N2CCN(Cc3ccccc3)C2=O)nc1C | 122 to 124
CC(C)(C)c1cc(CO)n(Cc2ccc(C(F)(F)F)cc2Cl)n1 | 115 to 117
COCC(C)(C)Cc1cc(N(C)C)ccn1 | 56 to 58
CS(=O)(=O)Oc1ccc2c(c1)C1(CCCC1)CO2 | 75 to 77
FC1(F)N=c2cc3c(cc2=N1)OC(Cl)O3 | > 220
CCCOc1cccc2c1C(N)=NS(=O)(=O)N2 | 229 to 230
CCOCc1nc2c(N)nc(C)c(C)c2n1Cc1cc(-c2cccnc2)no1 | 189 to 191
Cc1cccc2sc(-n3nc(CCC(=O)N(C)O)cc3-c3ccsc3)nc12 | 142 to 143
CCNC(=O)c1ccc2ccc(OC)cc2c1OC(C)C | 78 to 79
CCCCCCCCC(SCCCC)C(=O)Nc1cccc2cnccc12 (stereo not given) | 73 to 75
COc1ccc([C@]2(C)CNC(=O)O2)cc1OC1CCC1 | 132
CCCCSC(=NC(C)=O)Nc1c(Cl)cccc1Cl | 84 to 89
Cc1cc(O)ccc1-c1nn(CC(C)C)c2c(F)cccc12 | 126 to 128
N#CCCCN1CCN(c2nc3nccc(-c4ccncc4)n3n2)CC1 | 147 to 148
CN1CCC(Sc2ccc3[nH]c(=O)n(C)c3c2)CC1 | 196 to 198
COC(=O)c1ccc(CN([C@@H](C)c2ccccc2)S(=O)(=O)c2ccc(Cl)cc2)cc1 | 105 to 106
O=C(Nc1cccc(F)c1)Nc1cnnc(Cl)c1 | 293 to 296
CC1(C)Oc2ccc(Br)cc2C(n2ccccc2=O)=C1CN(O)C(N)=S | 219

Structure (SMILES) | melting point [°C]
NS(=O)(=O)c1cccc(CCO)c1 | 109
Cc1cc(-n2c(C)nc3ccccc32)ccc1[N+](=O)[O-] | 144 to 146
CC(C)(C)CNc1cc(N2CCNCC2)nc(N2CCCC2)n1 | 140 to 145
CN(C)c1ccc(C(=O)CCCC2CCN(Cc3ccccc3)CC2)cc1 | 83 to 85
N#Cc1ccc(Nc2ncc(Cl)c(O)n2)cc1 | > 300
COc1cc2[nH]c(C(=O)OCc3ccccc3)cc2c(C)c1C | 161
CC(C)OC(=O)NC(=O)C(c1ccccc1)c1ccccc1 | 122 to 124
COc1cc(OCc2ccccn2)ccc1/C=C/c1cc(/C=C/c2c[nH]c3ccccc23)n[nH]1 | 112 to 116
O=Cc1cc(Br)c(C=O)cc1Br | 184 to 189
CC1Oc2ccc(C(F)(F)F)cc2NC1=O (stereo not given) | 142 to 144
C[C@@H]1Cc2cc([N+](=O)[O-])ccc2N1 | 63 to 64
COC(=O)c1cc(C(C)C)c(OS(=O)(=O)NC(=O)Cc2c(C(C)C)cc(C(C)C)cc2C(C)C)c(C(C)C)c1 | 144 to 146
C[C@@H](O)c1nccc(N2CCN(c3cnc4ccccc4n3)CC2)n1 | 106 to 108
NS(=O)(=O)c1ccc(NC(=O)C(=O)N2CCC(Cc3ccc(F)cc3)CC2)cc1 | 201 to 203
COc1cc(C(=O)N(C(C)C)C2CCCCC2)ccc1Cn1c(CO)nc2cccnc21 | 124 to 126
CCCCNc1ncn(-c2c(CC)cccc2CC)c(=O)n1 | 178 to 179
COC(=O)CCCCNC(=O)C(COS(C)(=O)=O)NS(=O)(=O)c1ccc(Cl)cc1 (racemic) | 95 to 97
COC(=O)C(=O)Nc1cccc(OCCCBr)c1 | 90 to 91
CC(=O)OC1(Cc2ccccn2)C(=O)N(N2CCOCC2)c2ccccc21 (stereo not given) | 107 to 110
CCN(CC)C(=O)CNC1(c2ccccc2Cl)C(=O)Nc2ccc(Cl)cc21 (stereo not given) | 223
COCC(=O)N1CCc2cc(S(=O)(=O)N3CCN(c4cccc(Cl)c4)CC3)ccc21 | 230
C=CCN(C)C1(C#N)CCC2(CC1)OCCO2 | 47 to 50
CCC=C(C)C(O)C(CC)CC (stereo not given) | 92 to 93
CCOC(=O)CNC(=O)[C@@H](C)NC(=O)CNC(=O)CSC(=O)c1ccccc1 | 137
CCNC(=O)Oc1ccccc1 | 49 to 50
CCN(CC)C(=O)C(C)Oc1nc(-c2ccccc2)cc2ccccc12 (stereo not given) | 117
CC(=O)N1CCN2c3c(cccc3C3CCCC32)C1 (stereo not given) | 111 to 113

Structure (SMILES) | melting point [°C]
O=C(O)C(=O)c1ccc2c(c1)OCO2 | 144 to 146
OCc1cc2occc2cn1 | 72 to 74
Clc1ccc(OCc2ccc3ccccc3n2)cc1 | 92 to 94
CS(=O)(=O)Nc1ccc(NC(=O)C(=O)O)cc1 | > 260
Cc1ccn2c(C)c(-c3ccc4c(c3)NC(=O)CO4)nc2c1 | 239 to 241
Clc1ccc(C(Cl)Cl)c(C(Cl)Cl)c1 | 63 to 64
O=C(O)CCCCOc1cccc(CNC(=O)C2Cc3ccccc3N2S(=O)(=O)c2ccc(-c3cccc(C(F)(F)F)c3)cc2)c1 (stereo not given) | 70
N#Cc1c(N2CCCCC2)cc(-c2ccc(F)cc2)c2c1C(=O)c1ccccc1-2 | 152 to 154
O=C(O)CSCCCCCCNS(=O)(=O)c1ccc(Cl)cc1 | 104 to 105
Cc1cc2cc([N+](=O)[O-])ccc2o1 | 93 to 95
CCOC(=O)C1(c2ccccc2)CCN(C2=CCC(C#N)(c3ccccn3)CC2)CC1 (stereo not given) | 160
COc1ccccc1-c1cn([C@H]2CN3CCC2CC3)nn1 | 120
Oc1ccc(Cl)cc1CN1COC(c2ccc(C(F)(F)F)cc2)=N1 | 144 to 145
COc1cc(N2CCC(N3CCOCC3)CC2)ccc1-c1nc2c(N[C@H]3[C@@H](C(N)=O)[C@@H]4C=C[C@H]3C4)c(Br)cnc2[nH]1 | 185 to 195
Cc1cnc(Cl)c(OCC(O)CNC(C)C)n1 (stereo not given) | 109 to 110
CN1CC=C(c2c[nH]c3ccc(NC(N)=S)cc23)CC1 | 209 to 211
O=C(c1ccccc1)c1nc(Br)ccc1[N+](=O)[O-] | 146 to 148
CC(=O)SCCC(=O)N1CCC=C1C(=O)OC(C)(C)C | 59 to 62
CC1(C)CCc2c(N3CCOCC3)nc3sc4c(NCCc5ccccn5)ncnc4c3c2C1 | 238 to 239
Cc1c(F)c(F)cc2c(=O)c(C(=O)O)cn(-c3nc(N)c(F)cc3F)c12 | 274 to 277
CON(c1ccc([N+](=O)[O-])cc1Cl)S(=O)(=O)c1ccc(Cl)c(Cl)c1 | 132 to 133
CC(C)c1nsc(N=C(Cl)N(C)C)c1C#N | 72 to 75
O=C(NC(=NCCCc1c[nH]cn1)NCCSCc1csc(N=C2NCCCN2)n1)c1ccccc1 | 175 to 176
O=C(NCC(=O)N1CCSC1)c1cc2cc(Cl)ccc2[nH]1 | 253 to 255
